Assay [1] concerns phosphorylation of AKT on Ser473 as a readout of the PI3K pathway in SKBR3 (PIK3CA WT) cells. As to the kind of experiment: PI3K pathway activation assay, pAKT Ser473 HTRF, SKBR3 cells. As to conditions: two hours of treatment. In kind it is cell-based. Here is the method: The inhibitory activity of compounds was evaluated by measuring phosphorylation of AKT on Ser473 as a readout of the PI3K pathway using HTRF (CisBio catalog number: 64AKSPE). These studies were conducted in the T-47D (heterozygous PIK3CA H1047R) and SKBR3 (PIK3CA WT) cell lines. Cells were maintained in a 37° C. incubator at 5% CO2 in the following media: T-47D: RPMI 1640, ATCC© Modification (Gibco, A10491-01) supplemented with 10% v/v FBS (Gibco, 26140-079), 1% penicillin streptomycin (Gibco, 15140-122), and 7.4 ug/mL insulin (MilliporeSigma, I9278); SKBR3: McCoy's 5a (Modified) Medium (Gibco, 16600-082) supplemented with 10% v/v FBS (Gibco, 26140-079). Cells were seeded in 384-well plates at a density of 4,000 cells/well. Compounds dissolved in DMSO were added using a digital dispense (D300E, Tecan) 10-point serial dilution. After two hours of treatment, cells were lysed for thirty minutes and then incubated with detection reagents per HTRF kit material and manufacturer's instructions. Fluorescence signal was measured with a multimode plate reader (Envision 2105, Perkin Elmer). Fluorescent signal was normalized to background and DMSO controls to obtain percent inhibition/activity for each compound.
For orientation: TR-FRET usually uses a lanthanide donor and a delayed reading to cut background.

Assay [2] concerns phosphorylation of AKT on Ser473 as a readout of the PI3K pathway in T-47D (heterozygous PIK3CA H1047R) cells. As to the kind of experiment: PI3K pathway activation assay, pAKT Ser473 HTRF, T-47D cells. In kind it is cell-based. The conditions noted are these: two hours of treatment. In a few lines: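 pAKT Ser473 measured by HTRF in SKBR3 (PIK3CA WT) and T-47D (PIK3CA H1047R) cells, 4,000/well. Signal normalised to background and DMSO controls as percent inhibition.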

Eleven molecules from patent US20240124422A1, “MUTANT PI3K-ALPHA INHIBITORS AND THEIR USE AS PHARMACEUTICALS” (Prelude Therapeutics Incorporated, priority 2022, published 2024) can be followed below.

Read-outs that look alike come from different tables or passages of the source. Some results are limits rather than exact numbers.

For `Cc1cc(C(C)Nc2ccccc2C(=O)O)c2nc(N3CC4CC4C3)n(C)c(=O)c2c1` (single isomer, unassigned) [Example 24, 2-((1-(2-(3-azabicyclo[3.1.0]hexan-3-yl)-3,6-dimethyl-4-oxo-3,4-dihydro-quinazolin-8-yl)ethyl)amino)benzoic acid], the IC50 in assay [1] (Homo sapiens, SK-BR-3, 2 h) was above 10 µM; in assay [2] (Homo sapiens, T47D, 2 h), below 0.5 µM.
Turning to `Cc1cc(C(C)Nc2ccccc2C(=O)O)c2nc(N3Cc4ccccc4C3)n(C(C)C)c(=O)c2c1` (single isomer, unassigned) [Example 27, 2-((1-(2-(isoindolin-2-yl)-3-isopropyl-6-methyl-4-oxo-3,4-dihydroquinazolin-8-yl)ethyl)amino)benzoic acid], the half-inhibitory concentration (IC50) in assay [1] (Homo sapiens, SK-BR-3, 2 h) is above 10 µM; in assay [2] (Homo sapiens, T47D, 2 h), below 0.5 µM.
In the case of `Cc1cc(C(C)Nc2ccccc2C(=O)O)c2nc(N3Cc4cccnc4C3)n(C)c(=O)c2c1` (single isomer, unassigned) [Example 67, 2-((1-(2-(5,7-Dihydro-6H-pyrrolo[3,4-b]pyridin-6-yl)-3,6-dimethyl-4-oxo-3,4-dihydroquinazolin-8-yl)ethyl)amino)benzoic acid], the IC50 is above 10 µM in assay [1] (Homo sapiens, SK-BR-3, 2 h) and below 0.5 µM in assay [2] (Homo sapiens, T47D, 2 h).
Taken in the same sequence, the figures for `[2H]C([2H])([2H])c1cc(C(C)Nc2ccccc2C(=O)O)c2nc(N3CC4CC4C3)n(C)c(=O)c2c1` (single isomer, unassigned) [Example 68] were above 10 µM and below 0.5 µM.
In the case of `Cc1cc(C(C)Nc2ccccc2C(=O)O)c2nc(N3CC4CCC3C4)n(C)c(=O)c2c1` (single isomer, unassigned) [Example 99, 2-((1-(2-(2-Azabicyclo[2.2.1]heptan-2-yl)-3,6-dimethyl-4-oxo-3,4-dihydro-quinazolin-8-yl)ethyl)amino)benzoic acid], the half-inhibitory concentration (IC50) in assay [1] (Homo sapiens, SK-BR-3, 2 h) is above 10 µM; in assay [2] (Homo sapiens, T47D, 2 h) it was below 0.5 µM.
With `Cc1cc(C(C)Nc2ccccc2C(=O)O)c2nc(N3CC4CCC3C4)n(C)c(=O)c2c1` (single isomer, unassigned) [Example 100, 2-((1-(2-(2-Azabicyclo[2.2.1]heptan-2-yl)-3,6-dimethyl-4-oxo-3,4-dihydro-quinazolin-8-yl)ethyl)amino)benzoic acid], the IC50 in assay [1] was above 10 µM; in assay [2] (read-out: T47D pAKT IC50), below 0.5 µM.
Consider `[2H]C([2H])([2H])n1c(N2CC3CC3C2)nc2c(C(C)Nc3ccccc3C(=O)O)cc(C)cc2c1=O` (single isomer, unassigned) [Example 104, 2-((1-(2-(3-Azabicyclo[3.1.0]hexan-3-yl)-6-methyl-3-(methyl-d3)-4-oxo-3,4-dihydroquinazolin-8-yl)ethyl)amino)benzoic acid], for which the IC50 was above 10 µM in assay [1] (Homo sapiens, SK-BR-3, 2 h) and below 0.5 µM in assay [2] (Homo sapiens, T47D, 2 h).
For the molecule `CC(Nc1ccccc1C(=O)O)c1cc(Cl)cc2c(=O)n(C)c(N3CC4CC4C3)nc12` (single isomer, unassigned) [Example 105, 2-((1-(2-(3-Azabicyclo[3.1.0]hexan-3-yl)-6-chloro-3-methyl-4-oxo-3,4-dihydroquinazolin-8-yl)ethyl)amino)benzoic acid], the IC50 was above 10 µM in assay [1] (Homo sapiens, SK-BR-3, 2 h) and below 0.5 µM in assay [2] (Homo sapiens, T47D, 2 h).
Taken in the same sequence, the figures for `Cc1cc(C(C)Nc2ccccc2C(=O)O)c2nc(N3Cc4ccccc4C3)n(C)c(=O)c2c1` (centres unmarked) [Example 1, 2-((1-(2-(isoindolin-2-yl)-3,6-dimethyl-4-oxo-3,4-dihydroquinazolin-8-yl)ethyl)amino)benzoic acid] were above 10 µM and below 0.5 µM.
In the case of `Cc1cc(C(C)Nc2cc(F)ncc2C(=O)O)c2nc(N3CC4CC4C3)n(C)c(=O)c2c1` (centres unmarked) [Example 125, 4-((1-(2-(3-Azabicyclo[3.1.0]hexan-3-yl)-3,6-dimethyl-4-oxo-3,4-dihydroquinazolin-8-yl)ethyl)amino)-6-fluoronicotinic acid], the IC50 in assay [2] (Homo sapiens, T47D, 2 h) is 0.5 to 10 µM.
Same read-out and setting: in the case of `Cc1cc(C(C)Nc2cc(Cl)nnc2C(=O)O)c2nc(N3CC4CC4C3)n(C)c(=O)c2c1` (centres unmarked) [Example 126, 4-((1-(2-(3-Azabicyclo[3.1.0]hexan-3-yl)-3,6-dimethyl-4-oxo-3,4-dihydroquinazolin-8-yl)ethyl)amino)-6-chloropyridazine-3-carboxylic acid] it was 0.5 to 10 µM.

For orientation: IC50 means the concentration that gives 50% inhibition.
